How the values were obtained:
[1] = target: T1, purified human recombinant MTH1 (human MTH1, residues 42-197) (Homo sapiens, UniProt P36639); assay: MTH1 enzymatic assay (luminescence-based, PPiLight); assay type: biochemical; conditions: 6 μM 8-oxo-dGTP, Table 1, grouped
T1 construct: human MTH1, residues 42-197, Uniprot-ID: P36639, expressed in E. coli; made in house; host or cells: E. coli

[2] = target: T2, humanMTH1 (aminoacids 42 to 197) (Homo sapiens, UniProt P36639); assay: Binding affinities and kinetics on MTH1 surfaces by surface plasmon resonance (SPR); conditions: for Kd: SPR, Biacore4000, 25° C., Table 1, grouped, read-out: KD IC50
T2 construct: humanMTH1 (aminoacids 42 to 197); His tag at the N-terminus; purchased Abnova ab99390; host or cells: E. coli
Experimental: The SPR experiments were performed using a Biacore4000 instrument. […] HumanMTH1 was immobilized on Biacore CM5 chips at 25° C. and a flow rate of 10 μL/min using amine coupling at pH 5.5 and in presence of 1 μM MSC2567771B-1 according to Biacore's standard protocol. MTH1 was applied at a concentration of 10 μg/mL and depending on the duration of the injection time immobilization levels between 500 and 2,000 RU were obtained. Sample compounds were applied in form of titration series with a doubling of concentration at each subsequent injection. In general, 10 concentrations were injected covering a dilution range of 500 fold. Before and after each of these titration series the binding capability of the surface was controlled by the injection of the positive control S-Crizotinib at a fixed concentration of 2 μM. Kinetic titration experiments were performed at 25° C. with a flow rate of 30 μL/min, a sample contact time of 90 sec and a dissociation time of 420 sec in running buffer (20 mM Tris-HCl (Tris(hydroxymethyl)-aminomethane HCl) pH 7.40, 150 mM NaCl, 5 mM MgCl2, 1 mM DTT (dithiothreitol), 0.1 mM EGTA (ethylene glycol tetraacetic acid), 0.05% Tween 20) containing 2% DMSO (dimethyl sulfoxide). Buffer injections identical to the sample injections were executed at the beginning of the successive series for the purpose of double referencing. Solvent correction cycles (eight correction points, 1.4%-2.8% DMSO) were run at the same intervals. For surface conditioning ten start-up cycles (buffer injections) were run. Data points were collected at a sample rate of 10 Hz.
Data sets were processed and analyzed using the software Biacore4000 Evaluation, version 1.0. Solvent corrected and double-referenced association and dissociation phase data were fitted to a simple 1:1 interaction model with mass transport limitations.
Measured values are indicated as KD IC50 in the Table below.

Row | IC50 [1] [nM] | Kd [2] [nM] | SMILES | residence time ([2]; on MTH1, calculated on the basis of the KD values) [min]
1 | < 1 | < 1 | CNc1cc(N2CCCC[C@H]2Cc2ccc(OC)cc2)nc(N)n1 [Example 117, 6-[(S)-2-(4-Methoxy-benzyl)-piperidin-1-yl]-N4-methyl-pyrimidine-2,4-diamine] | –
2 | 1 to 100 | 1 to 100 | C=CC(=O)Nc1ccc(CCNC(=O)C2CN(c3cc(NC)nc(N)n3)C2)cc1 [Example 118, 1-(2-Amino-6-methylamino-pyrimidin-4-yl)-azetidine-3-carboxylic acid [2-(4-acryloylamino-phenyl)-ethyl]-amide] | –

Row | SMILES | IC50 [1] [nM] | Kd [2] [nM] | residence time ([2]; on MTH1, calculated on the basis of the KD values) [min]
3 | CNc1cc(N2CCC(C(=O)NCCc3ccc(S(=O)(=O)F)cc3)CC2)nc(N)n1 [Example 120, 4-(2-{[1-(2-Amino-6-methylamino-pyrimidin-4-yl)-piperidine-4-carbonyl]-amino}-ethyl)-benzenesulfonyl fluoride] | < 1 | – | ≥ 10

Source: patent US20180118721A1, “PYRIMIDINE DERIVATIVES” (Merck Patent GmbH, priority 2015, published 2018)
